“And” between values parts separate entries of the source, which are not always exact repeats. Identical values can stand only once.
Experiments:
[1] = test system: Glutamate, NMDA Agonist Site (Ionotropic); assay: Radio-ligand binding assay, Glutamate NMDA agonist site; conditions: 10 μM l-THBr; radioligand [3H]CGP 39653
Method: (§1) To determine the possible targets of l-THBr action, the binding affinities of l-THBr to neurotransmitter receptors known to be involved in sedation, hypnosis and anxiety were investigated. Radio-ligand binding assays were performed by Caliper Lifescience (Hopkinton, MA, USA). The screening was carried out at a concentration of 10 μM l–THBr to test its ability to inhibit the binding of radioligands to their corresponding receptors. The results were expressed as percentage of inhibition of labeled ligand binding to individual receptors. Significant binding activity was defined as ≥50%.

Dopamine, D4.4 (h) = test system: T1, Dopamine, D4.4 (h); assay: Radio-ligand binding assay, Dopamine D4.4; parameters: species or system human; conditions: 10 μM l-THBr
T1 construct: Caliper Lifescience
Method: as §1

Dopamine, D1 (h) = test system: T2, Dopamine, D1 (h); assay: Radio-ligand binding assay, Dopamine D1; parameters: species or system human; conditions: 10 μM l-THBr
T2 construct: Caliper Lifescience
Method: as §1

COc1ccc2c(c1O)CN1CCc3cc4c(cc3[C@@H]1C2)OCO4 [l-THBr, levo-tetrahydroberberrubine] was tested, and the Average inhibition percentage [1] was 4.79%, the Activity (Dopamine, D4.4 (h)) was “Yes (Significant binding affinity of l-THBr was defined as greater than 50% inhibition of ligand binding)” and the Average inhibition percentage (Dopamine, D4.4 (h); radioligand [3H]-YM-09151-2) was 79.55%. The Activity (Dopamine, D1 (h)) was “Yes (Significant binding affinity of l-THBr was defined as greater than 50% inhibition of ligand binding)” and the Average inhibition percentage (Dopamine, D1 (h); radioligand [3H]-SCH23390) was 100.6% and 100.61%.
